# Assay results published in patent US9409983B2, “Methods and compositions involving PBEF inhibitors for lung inflammation conditions and diseases” (The Board of Trustess of the University of Illinois, priority 2009, dated 2016).
# Tested on: C57BL/6 mice
# Assay: Lung RNA microarray analysis (SAM dysregulated genes) with RT-PCR and BAL ELISA validation
# Assay type: in vivo, mouse
# Procedure: Total lung RNA was isolated as described previously (Nonas et al., 2007). Affymetrix Mouse430_2 arrays (Affymetrix Inc., Santa Clara, Calif.) were utilized. Chip quality (Li and Wong, 2001) and ‘present’ or ‘absent’ expression calls were determined by GeneChip® Operating Software (GCOS) (GSE9368-rhPBEF, GSE9314-PBEF^+/−). Intensities and normalization of probe sets were calculated by Bioconductor software (GCRMA package) (Team RDC, 2005). To identify differentially-expressed genes, pairwise comparisons were conducted using Significance Analysis of Microarrays (SAM) as previously described (Nonas et al., 2007). Gene filtering parameters and results are summarized in Supplementary Table E2. Differentially-expressed genes displaying>2 fold changes are referred to as “dysregulated genes”.
# Dysregulated gene functional profiles were analyzed using Onto-Express with the number of genes in each GO biological process category (Wu et al., 2004) compared with all genes on the […] chip to determine the significance of the GO category (Consortium, 2006). Ingenuity Pathway Analysis (IPA) software (containing individually modeled relationships between gene objects e.g. genes, mRNAs, proteins) was utilized to dynamically generate significant regulatory and signaling networks or pathways. The significance of a canonical pathway is controlled by the p-value calculated using the right-tailed Fisher Exact Test for 2×2 contingency tables. (See Supplemental Methods).
# Lung total RNA was isolated from whole rodent lung tissue for microarray experiment as we have described previously (9) using the Affymetrix GeneChip platform and Expression Analysis Manual protocols (Affymetrix Inc., Santa Clara, Calif.). The signal intensity fluorescent images produced during Affymetrix GeneChip Mouse430_2 Array hybridizations were scanned using the Hewlett-Packard GeneArray Scanner G2500A. The ‘Present’ or ‘Absent’ calls of the probe sets in the expression chips were determined by GCOS (GeneChip® Operating Software) software. The microarray data have been submitted to the National Center for Biotechnology Information (NCBI)'s Gene Expression Omnibus repository (GSE9368 for rhPBEF study and GSE9314 for PBEF^+/− study). Chip quality (RNA degradation, cDNA synthesis, hybridization, chip washing, scanning) was evaluated with GCOS, dChip (Li and Wong, 2001) and Bioconductor ‘affy’ packages. All RNA samples and chips adopted in current study passed the quality criteria (data not shown). The intensities of probe sets were calculated by the GC Robust Multichip Average (GCRMA) package of Bioconductor software for normalization (Team RDC, 2005). To identify differentially-expressed genes, pairwise comparisons were conducted using Significance Analysis of Microarrays (SAM) (see the SAM online manual for detailed explanations of the blocking approach, www-stat.stanford.edu/˜tibs/SAM) as we have previously described (Nonas et al., 2007). Only probe sets present (determined by Affy ‘P’-call) in three replicates of at least one group with mean intensity above 100 were used for further data mining. The gene filtering parameters and results were summarized in Supplementary Table E2. […] For probe sets representing the same Entrez Gene or UniGene ID, only the probe set with lowest FDR or highest fold changes was included in the gene list.
# Dysregulated genes were uploaded into the IPA software (http://www.ingenuity.com), a web-delivered application which utilizes the Ingenuity Pathways Knowledge Base (IPKB) containing a robust number of individually modeled relationships between gene objects (e.g. genes, mRNAs, proteins), in order to dynamically generate significant regulatory and signaling networks or pathways. […]
substance,measurement,setting,value
"rhPBEF: Recombinant human soluble PBEF/visfatin, a 52 kDa protein containing 465 amino acid residues, purchased from PeproTech",dysregulated genes in the NFκB pathway,"VILIa-rhPBEF combined exposure, Ingenuity Pathway Analysis",21
same,"CxCL1 (KC) DNA microarray, average fold change increase over control",rhPBEF,510 fold change
same,"Map3k8 DNA microarray, average fold change increase over control",rhPBEF,3 fold change
same,"TNF-α DNA microarray, average fold change increase over control",rhPBEF,23 fold change
same,"BCL3 DNA microarray, average fold change increase over control",rhPBEF VILIa,11 fold change
same,"CxCL1 (KC) DNA microarray, average fold change increase over control",rhPBEF VILIa,589 fold change
same,"CxCL2 (MIP2α) DNA microarray, average fold change increase over control",rhPBEF VILIa,2128 fold change
same,"MMP9 DNA microarray, average fold change increase over control",rhPBEF VILIa,13 fold change
same,Unique Down,"rhPBEF vs. Control, SAM, fold change 2",118
